Laboratory results as given in patent publication US20070129419A1, “Serotonin transporter (SERT) inhibitors for the treatment of depression and anxiety” (priority 2005, published 2007).
Where two headings read alike, the source gives them in different places.

Key:
recombinant human SERT = target: T1, recombinant human SERT (Homo sapiens, UniProt P31645); assay: hSERT SPA binding assay ([3H]citalopram displacement, HEK-293 membranes)
T1 construct: expressed in transfected cells; membrane preparation
T1 sequence (P31645 whole entry): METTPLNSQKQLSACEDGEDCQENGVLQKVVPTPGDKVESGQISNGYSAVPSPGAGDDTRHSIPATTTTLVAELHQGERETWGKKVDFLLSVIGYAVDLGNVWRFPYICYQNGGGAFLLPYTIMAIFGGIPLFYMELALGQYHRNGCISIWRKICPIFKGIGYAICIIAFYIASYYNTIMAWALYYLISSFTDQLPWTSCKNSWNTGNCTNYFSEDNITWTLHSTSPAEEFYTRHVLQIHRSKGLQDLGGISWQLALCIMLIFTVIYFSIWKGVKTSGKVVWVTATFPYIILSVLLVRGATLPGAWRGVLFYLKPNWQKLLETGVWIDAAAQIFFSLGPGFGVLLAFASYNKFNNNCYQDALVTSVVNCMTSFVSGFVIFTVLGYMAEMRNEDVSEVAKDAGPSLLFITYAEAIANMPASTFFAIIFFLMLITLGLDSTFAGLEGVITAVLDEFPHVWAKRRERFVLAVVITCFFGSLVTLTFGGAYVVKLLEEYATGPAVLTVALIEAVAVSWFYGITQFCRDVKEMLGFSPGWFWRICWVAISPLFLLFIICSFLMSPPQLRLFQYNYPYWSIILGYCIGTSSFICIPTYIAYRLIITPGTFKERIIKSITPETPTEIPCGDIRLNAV
Protocol: HEK-293 cells stably expressing recombinant human SERT are maintained with DMEM high glucose with 10% FBS, 300 μg/ml G418 and 2 mM L-Glutamine and incubated at 37° C. with 5% CO2. Cells are released from culture flasks using PBS for 1-2 min. The cells are subsequently centrifuged at 1000 g's for 5 min and resuspended in PBS prior to being used in the membrane preparation.
Cells are homogenized using a Polytron in 50 mM Tris (pH 7.4). Centrifuged at 48,000×g for 15 min, and the pellet resuspended in fresh buffer. After a second centrifugation, the pellet is re-homogenized and resuspended in fresh buffer. Typically, membrane portions are aliquoted in 3 mg/ml (w:v). and stored at −80° C.
A serial dilution of test compounds in 50 mM Tris-HCl, 120 mM NaCl, KCl 5 mM (pH 7.4) is made in a white Optiplate (Packard) (100 μl/well) and the radioligand ^3[H] Citalopram (Specific activity: 60-86 Ci/mmol, Final concentration: 1 nM) is added at 50 μl/well. Membrane and beads are prepared to a ratio of 5 μg:0.6 mg, with 0.6 mg PVT-WGA Amersham beads (Cat#RPQ0282V) added per well. 50 μl of the membrane/bead mixture is added to the assay plate for a final volume of 200 μl. The mixtures are allowed to stand at room temperature for one hour, and are then counted on a Packard TopCount.
The % inhibition is calculated for each compound tested (with 100% binding being the value obtained with the incubation of membrane/beads and radioligand in buffer without compound minus the non-specific binding measured in presence of 10 μM Fluoxetine). The concentration producing 50% inhibition (IC50) is determined using an iterative non-linear curve fitting technique. The inhibition dissociation constant (Ki) of each compound is determined according to the method of Cheng-Prusoff, decribed in Biochem. Pharmacol., 1973, 22(23), pages 3099-3108.

human NK-1 receptor = target: T2, human NK-1 receptor (Homo sapiens, UniProt P25103); assay: hNK-1 binding assay ([3H]substance P displacement, CHO cells); conditions: [3H]substance P 0.6 nM, CHO cells transfected with human NK-1 receptor; read-out: pKi hNK1 (converted)
T2 construct: expressed in transfected cells; host or cells: CHO cells, Semliki virus expression system; membrane suspension
T2 sequence (P25103 whole entry): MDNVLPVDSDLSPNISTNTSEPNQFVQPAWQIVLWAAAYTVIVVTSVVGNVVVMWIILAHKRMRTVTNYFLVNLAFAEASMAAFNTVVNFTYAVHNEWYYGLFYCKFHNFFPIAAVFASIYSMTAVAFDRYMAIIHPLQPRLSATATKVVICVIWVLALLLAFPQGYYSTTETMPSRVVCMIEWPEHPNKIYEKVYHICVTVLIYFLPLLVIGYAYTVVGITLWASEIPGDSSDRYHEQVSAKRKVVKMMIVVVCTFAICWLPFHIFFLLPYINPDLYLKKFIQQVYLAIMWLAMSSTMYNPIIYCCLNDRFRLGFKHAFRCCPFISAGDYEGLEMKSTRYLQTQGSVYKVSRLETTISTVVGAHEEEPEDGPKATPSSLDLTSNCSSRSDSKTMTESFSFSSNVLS
Protocol: The affinity of test compounds for the NK-1 receptor was evaluated at human NK-1 receptors in CHO cells transfected with the human NK-1 receptor using the Semliki virus expression system and radiolabelled with [^3H]substance P (final concentration 0.6 nM). Binding assays were performed in HEPES buffer (50 mM, pH 7.4) containing BSA (0.04%) leupeptin (8 μg/ml), MnCl2 (3 mM) and phosphoramidon (2 μM). Binding assays consisted of 250 μl of membrane suspension (1.25×10^5 cells/assay tube), 125 μl of buffer of displacing agent and 125 μl of [^3H]substance P. Displacement curves were determined with at least ten concentrations of the compound. The assay tubes were incubated for 60 min at room temperature after which time the tube contents were rapidly filtered under vacuum through GF/C filters presoaked for 60 min with PEI (0.3%) with 2×2 ml washes of HEPES buffer (50 mM, pH 7.4). The radioactivity retained on the filters was measured by scintillation counting. All assays were performed in duplicate in at least 2 separate experiments.
The inhibition dissociation constant (Ki) of each compound for NK1 is determined as described above for hSERT.

[1] = [3H]citalopram 1 nM, HEK-293 membranes expressing human SERT, read-out: pKi hSERT (converted)

| Ki (human NK-1 receptor) [nM] | Ki (recombinant human SERT; [1]) [nM] | Structure (SMILES) | Ki (recombinant human SERT) [nM] |
| --- | --- | --- | --- |
| 46.8 | 5.89 | Fc1cccc([C@@H]2CNC[C@@H]2COCc2cc(C(F)(F)F)cc(C(F)(F)F)c2)c1 [2 of I] |  |
| 50.1 | 3.47 | Fc1ccccc1[C@@H]1CNC[C@@H]1COCc1cc(C(F)(F)F)cc(C(F)(F)F)c1 [3 of I] |  |
| 31.6 | 8.13 | FC(F)(F)c1cc(COC[C@H]2CNC[C@H]2c2cccc(Cl)c2)cc(C(F)(F)F)c1 [5 of I] |  |
| 43.7 | 10.2 | FC(F)(F)c1cc(COC[C@H]2CNC[C@H]2c2ccccc2Cl)cc(C(F)(F)F)c1 [6 of I] |  |
| 28.8 | 7.59 | Cc1ccccc1[C@@H]1CNC[C@@H]1COCc1cc(C(F)(F)F)cc(C(F)(F)F)c1 [7 of I] |  |
| 43.7 | 4.9 | FC(F)(F)c1cc(COC[C@H]2CNC[C@H]2c2ccccc2)cc(C(F)(F)F)c1 [8 of I] |  |
| 41.7 | 5.89 | Brc1cc(Br)cc(COC[C@H]2CNCC2c2ccccc2)c1 (stereo partly shown) [9 of I] |  |
| 257 | 4.57 | Cc1cc(C)cc(COC[C@H]2CNC[C@H]2c2ccccc2)c1 [10 of I] |  |
| 224 | 5.75 | Fc1cc(COC[C@H]2CNC[C@H]2c2ccccc2)cc(C(F)(F)F)c1 [11 of I] |  |
| 676 | 11 | FC(F)(F)c1cccc(COC[C@H]2CNC[C@H]2c2ccccc2)c1 [12 of I] |  |
| 759 | 13.8 | FC(F)(F)Oc1cccc(COC[C@H]2CNC[C@H]2c2ccccc2)c1 [13 of I] |  |
| 741 | 20.4 | COc1cc(COC[C@H]2CNC[C@H]2c2ccccc2)cc(OC)c1 [14 of I] |  |
| 646 | 70.8 | FC(F)(F)c1ccccc1COC[C@H]1CNC[C@H]1c1ccccc1 [15 of I] |  |
| 26.3 | 22.9 | FC(F)(F)c1cc(CNC[C@H]2CNC[C@H]2c2ccccc2)cc(C(F)(F)F)c1 [16 of I] |  |
| 31.6 | 8.13 | CN(Cc1cc(C(F)(F)F)cc(C(F)(F)F)c1)C[C@H]1CNC[C@H]1c1ccccc1 [17 of I] |  |

| Structure (SMILES) | Ki (human NK-1 receptor) [nM] | Ki (recombinant human SERT; [1]) [nM] | Ki (recombinant human SERT) [nM] |
| --- | --- | --- | --- |
| Fc1ccc([C@@H]2CNC[C@@H]2COCc2cc(C(F)(F)F)cc(C(F)(F)F)c2)cc1 [1 of I] | 295 |  | 2.75 |
| FC(F)(F)c1cc(COC[C@H]2CNC[C@H]2c2ccc(Cl)cc2)cc(C(F)(F)F)c1 [4 of I] | 53.7 | 4.47 |  |
